Laboratory results from patent US10758534B2 (Vertex Pharmaceuticals Incorporated, priority 2014, dated 2020).

Target: T1, F508del (Homo sapiens, UniProt P13569, DEL508-508)
T1 construct: expressed in transfected cells
Experiment: Protocol 1: membrane potential optical assay (FLIPR III, voltage sensing dye), identification of potentiator compounds
Assay type: cell-based
Details: Table 3, compounds of Table 1
Procedure, shortened: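 NIH 3T3 fibroblasts stably expressing F508del were cultured at 27° C for 24 hrs for temperature correction, then treated with compounds or DMSO and loaded with a voltage-sensing redistribution dye. Forskolin added with a Cl⁻ gradient activated the channel; membrane-potential fluorescence on FLIPR III reported increased gating.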

T1 sequence (P13569 with tags, fused parts or gaps DEL508-508): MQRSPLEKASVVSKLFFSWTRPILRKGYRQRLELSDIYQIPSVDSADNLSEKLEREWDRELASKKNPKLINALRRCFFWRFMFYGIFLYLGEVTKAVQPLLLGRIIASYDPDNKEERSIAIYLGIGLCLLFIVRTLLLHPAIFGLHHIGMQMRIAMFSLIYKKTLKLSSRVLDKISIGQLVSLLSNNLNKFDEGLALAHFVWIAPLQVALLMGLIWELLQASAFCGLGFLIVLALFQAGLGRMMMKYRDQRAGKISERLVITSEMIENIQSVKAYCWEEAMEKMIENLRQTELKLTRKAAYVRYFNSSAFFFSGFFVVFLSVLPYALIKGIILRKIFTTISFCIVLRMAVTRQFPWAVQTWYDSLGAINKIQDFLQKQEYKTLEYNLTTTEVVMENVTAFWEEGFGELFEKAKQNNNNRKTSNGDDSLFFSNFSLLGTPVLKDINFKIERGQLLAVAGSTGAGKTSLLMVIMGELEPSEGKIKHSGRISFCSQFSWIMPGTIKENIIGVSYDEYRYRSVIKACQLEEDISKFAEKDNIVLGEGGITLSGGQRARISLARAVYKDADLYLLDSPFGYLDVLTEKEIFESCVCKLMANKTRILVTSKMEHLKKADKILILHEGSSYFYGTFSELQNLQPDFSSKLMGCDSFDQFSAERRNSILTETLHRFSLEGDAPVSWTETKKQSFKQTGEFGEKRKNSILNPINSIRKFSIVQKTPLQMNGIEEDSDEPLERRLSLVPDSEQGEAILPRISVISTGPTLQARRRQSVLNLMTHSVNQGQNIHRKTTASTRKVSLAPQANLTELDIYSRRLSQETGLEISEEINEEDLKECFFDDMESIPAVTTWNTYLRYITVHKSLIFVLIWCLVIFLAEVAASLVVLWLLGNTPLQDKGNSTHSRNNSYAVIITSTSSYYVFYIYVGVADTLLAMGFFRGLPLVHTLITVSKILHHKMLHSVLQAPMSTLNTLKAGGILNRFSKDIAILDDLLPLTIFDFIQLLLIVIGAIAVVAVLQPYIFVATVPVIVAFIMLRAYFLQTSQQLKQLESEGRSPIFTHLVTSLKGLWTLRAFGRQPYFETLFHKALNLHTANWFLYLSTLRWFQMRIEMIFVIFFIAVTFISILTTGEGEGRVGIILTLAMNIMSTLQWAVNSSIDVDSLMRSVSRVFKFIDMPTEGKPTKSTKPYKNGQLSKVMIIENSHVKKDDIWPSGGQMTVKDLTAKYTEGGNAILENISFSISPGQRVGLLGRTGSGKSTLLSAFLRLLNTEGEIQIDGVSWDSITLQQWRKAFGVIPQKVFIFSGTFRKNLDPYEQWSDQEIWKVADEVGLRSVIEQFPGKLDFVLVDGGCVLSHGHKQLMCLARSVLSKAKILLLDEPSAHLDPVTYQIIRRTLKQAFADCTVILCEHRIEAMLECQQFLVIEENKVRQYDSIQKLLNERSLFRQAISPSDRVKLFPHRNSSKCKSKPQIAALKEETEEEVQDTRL

| EC30 | Compound |
| --- | --- |
| +++ (“+++” means <3 uM) | CC(C)CC/C=C/c1cc(C(=O)NS(=O)(=O)c2cccc(N)n2)c(N2C[C@@H](C)CC2(C)C)nc1C(C)(C)C [Compound 1682, N-[(6-amino-2-pyridyl)sulfonyl]-6-tert-butyl-5-[(E)-5-methylhex-1-enyl]-2-[(4S)-2,2,4-trimethylpyrrolidin-1-yl]pyridine-3-carboxamide] |
| +++ (“+++” means <3 uM) | CC1CN(c2ncccc2C(=O)NS(=O)(=O)c2cccc(O[C@H](C)c3ccccc3)n2)C(C)(C)C1 (stereo partly drawn) [Compound 1842, N—[[6-[(1R)-1-phenylethoxy]-2-pyridyl]sulfonyl]-2-(2,2,4-trimethylpyrrolidin-1-yl)pyridine-3-carboxamide] |
| ++ (“++” means between 3 uM and 10 uM) | CC(C)Oc1ccc(-c2ccc(C(=O)NS(=O)(=O)c3cccc(N)n3)c(N3CCC(C(C)(C)C)C3)n2)cn1 (stereo not drawn) [Compound 1206, N-[(6-amino-2-pyridyl)sulfonyl]-2-(3-tert-butylpyrrolidin-1-yl)-6-(6-isopropoxy-3-pyridyl)pyridine-3-carboxamide] |
| +++ (“+++” means <3 uM) | CC(C)CN(C)c1cc(-c2ccc(C(=O)NS(=O)(=O)c3cccc(N)n3)c(N3CC(C)CC3(C)C)n2)ccn1 (stereo not drawn) [Compound 898, N-[(6-amino-2-pyridyl)sulfonyl]-6-[2-[isobutyl(methyl)amino]-4-pyridyl]-2-(2,2,4-trimethylpyrrolidin-1-yl)pyridine-3-carboxamide] |
| +++ (“+++” means <3 uM) | COc1cc(-c2ccc(C(=O)NS(=O)(=O)c3cccc(N)n3)c(Oc3c(C)cc(C)cc3C)n2)ccc1C#N [Compound 923, N-[(6-amino-2-pyridyl)sulfonyl]-6-(4-cyano-3-methoxy-phenyl)-2-(2,4,6-trimethylphenoxy)pyridine-3-carboxamide] |
| +++ (“+++” means <3 uM) | Cc1cc(C)c(Oc2nc(C3=CCCCO3)ccc2C(=O)NS(=O)(=O)c2cccc(N)n2)c(C)c1 [Compound 937, N-[(6-amino-2-pyridyl)sulfonyl]-6-(3,4-dihydro-2H-pyran-6-yl)-2-(2,4,6-trimethylphenoxy)pyridine-3-carboxamide] |
| +++ (“+++” means <3 uM) | Cc1cc(OCCOC(C)C)nc(-c2ccc(C(=O)NS(=O)(=O)c3cccc(N)n3)c(N3C[C@@H](C)CC3(C)C)n2)c1 [Compound 1703, N-[(6-amino-2-pyridyl)sulfonyl]-6-[6-(2-isopropoxyethoxy)-4-methyl-2-pyridyl]-2-[(4S)-2,2,4-trimethylpyrrolidin-1-yl]pyridine-3-carboxamide] |
| + (“+” means greater than 10 uM) | Cc1cc(C)c(Oc2nc(-c3cccc(OCC4CC4)c3)ccc2C(=O)NS(=O)(=O)c2ccc[nH]c2=O)c(C)c1 [Compound 1105, 6-[3-(cyclopropylmethoxy)phenyl]-N-[(2-oxo-1H-pyridin-3-yl)sulfonyl]-2-(2,4,6-trimethylphenoxy)pyridine-3-carboxamide] |
| +++ (“+++” means <3 uM) | COc1cccc(COc2cccc(S(=O)(=O)NC(=O)c3cccnc3N3CC(C)CC3(C)C)n2)c1 (stereo not drawn) [Compound 1972, N—[[6-[(3-methoxyphenyl)methoxy]-2-pyridyl]sulfonyl]-2-(2,2,4-trimethylpyrrolidin-1-yl)pyridine-3-carboxamide] |
| +++ (“+++” means <3 uM) | Cc1cc(C)c(Oc2nc(C3CCCC3)ccc2C(=O)NS(=O)(=O)c2cccc(N)n2)c(C)c1 [Compound 1280, N-[(6-amino-2-pyridyl)sulfonyl]-6-cyclopentyl-2-(2,4,6-trimethylphenoxy)pyridine-3-carboxamide] |
| +++ (“+++” means <3 uM) | Cc1ccccc1-c1ccc(C(=O)NS(=O)(=O)c2cccnc2N)c(N2C[C@@H](C)CC2(C)C)n1 [Compound 1766, N-[(2-amino-3-pyridyl)sulfonyl]-6-(o-tolyl)-2-[(4S)-2,2,4-trimethylpyrrolidin-1-yl]pyridine-3-carboxamide] |
| + (“+” means greater than 10 uM) | CC1CN(c2nc(C(C)(C)C)c(C3=CCN(C)CC3)cc2C(=O)NS(=O)(=O)c2cccc(N)n2)C(C)(C)C1 (stereo not drawn) [Compound 1382, N-[(6-amino-2-pyridyl)sulfonyl]-6-tert-butyl-5-(1-methyl-3,6-dihydro-2H-pyridin-4-yl)-2-(2,2,4-trimethylpyrrolidin-1-yl)pyridine-3-carboxamide] |
| +++ (“+++” means <3 uM) | Cc1cc(C)c(Oc2nc(C3=CC(C)(C)OC3(C)C)ccc2C(=O)NS(=O)(=O)c2cccc(N)n2)c(C)c1 [Compound 1609, N-[(6-amino-2-pyridyl)sulfonyl]-6-(2,2,5,5-tetramethyl-3-furyl)-2-(2,4,6-trimethylphenoxy)pyridine-3-carboxamide] |
| +++ (“+++” means <3 uM) | Cc1cc(C)c(Oc2nc(-c3cccc(F)c3O)ccc2C(=O)NS(=O)(=O)c2cccc(N)n2)c(C)c1 [Compound 866, N-[(6-amino-2-pyridyl)sulfonyl]-6-(3-fluoro-2-hydroxy-phenyl)-2-(2,4,6-trimethylphenoxy)pyridine-3-carboxamide] |
| +++ (“+++” means <3 uM) | CC1CCN(c2nc(-c3cc(F)cc(OC(C)C)c3)ccc2C(=O)NS(=O)(=O)c2cc[nH]n2)CC1 [Compound 1042, 6-(3-fluoro-5-isopropoxy-phenyl)-2-(4-methyl-1-piperidyl)-N-(1H-pyrazol-3-ylsulfonyl)pyridine-3-carboxamide] |
| +++ (“+++” means <3 uM) | CC1CN(c2ncccc2C(=O)NS(=O)(=O)c2cccc(Nc3cc(F)ccc3Cl)n2)C(C)(C)C1 (stereo not drawn) [Compound 1941, N—[[6-(2-chloro-5-fluoro-anilino)-2-pyridyl]sulfonyl]-2-(2,2,4-trimethylpyrrolidin-1-yl)pyridine-3-carboxamide] |
| +++ (“+++” means <3 uM) | CC1CN(c2nc(-c3ccnn3C(C)C)ccc2C(=O)NS(=O)(=O)c2cccc(N)n2)C(C)(C)C1 (stereo not drawn) [Compound 1242, N-[(6-amino-2-pyridyl)sulfonyl]-6-(2-isopropylpyrazol-3-yl)-2-(2,2,4-trimethylpyrrolidin-1-yl)pyridine-3-carboxamide] |
| +++ (“+++” means <3 uM) | Cc1cccc(C)c1Cn1nc(-c2coc3ccccc3c2=O)cc1C(=O)NS(=O)(=O)c1ccccc1 [Compound 1501, N-(benzenesulfonyl)-2-[(2,6-dimethylphenyl)methyl]-5-(4-oxochromen-3-yl)pyrazole-3-carboxamide] |
| ++ (“++” means between 3 uM and 10 uM) | CC(C)Oc1ccc(-c2ccc(C(=O)NS(=O)(=O)c3cccc(N)n3)c(N3CCC[C@H](C)C3)n2)cn1 [Compound 836, N-[(6-amino-2-pyridyl)sulfonyl]-6-(6-isopropoxy-3-pyridyl)-2-[(3S)-3-methyl-1-piperidyl]pyridine-3-carboxamide] |
| ++ (“++” means between 3 uM and 10 uM) | Cc1cc(C)c(Oc2nc(C3=CCCC4(C3)OCCO4)ccc2C(=O)NS(=O)(=O)c2cccc(N)n2)c(C)c1 [Compound 1437, N-[(6-amino-2-pyridyl)sulfonyl]-6-(1,4-dioxaspiro[4.5]dec-8-en-9-yl)-2-(2,4,6-trimethylphenoxy)pyridine-3-carboxamide] |
| +++ (“+++” means <3 uM) | CC1CN(c2ncc(-c3ccccc3)cc2C(=O)NS(=O)(=O)c2cccc(N)n2)C(C)(C)C1 (stereo not drawn) [Compound 1384, N-[(6-amino-2-pyridyl)sulfonyl]-5-phenyl-2-(2,2,4-trimethylpyrrolidin-1-yl)pyridine-3-carboxamide] |

| Compound | EC30 |
| --- | --- |
| CC(C)COc1cc(F)cc(-c2ccc(C(=O)NS(=O)(=O)c3cccc(N)n3)c(OCCCc3ccccn3)n2)c1 [Compound 1693, N-[(6-amino-2-pyridyl)sulfonyl]-6-(3-fluoro-5-isobutoxy-phenyl)-2-[3-(2-pyridyl)propoxy]pyridine-3-carboxamide] | +++ (“+++” means <3 uM) |
| CC(C)COc1cc(F)cc(-c2ccc(C(=O)NS(=O)(=O)c3cccc(N)n3)c(OC(C)c3cccnc3)n2)c1 (stereo not drawn) [Compound 1434, N-[(6-amino-2-pyridyl)sulfonyl]-6-(3-fluoro-5-isobutoxy-phenyl)-2-[1-(3-pyridyl)ethoxy]pyridine-3-carboxamide] | +++ (“+++” means <3 uM) |
| CC(C)COc1cc(F)cc(-c2ccc(C(=O)NS(=O)(=O)c3cccnc3N)c(N3[C@H](C)CC[C@@H]3C)n2)c1 [Compound 1159, N-[(2-amino-3-pyridyl)sulfonyl]-2-[(2S,5R)-2,5-dimethylpyrrolidin-1-yl]-6-(3-fluoro-5-isobutoxy-phenyl)pyridine-3-carboxamide] | +++ (“+++” means <3 uM) |
